Experimental data published in patent US20140031217A1, “HERBICIDAL COMPOSITIONS COMPRISING 4-AMINO-3-CHLORO-5-FLUORO-6-(4-CHLORO-2-FLUORO-3-METHOXYPHENYL)PYRIDINE-2-CARBOXYLIC ACID OR A DERIVATIVE THEREOF AND AUXIN TRANSPORT INHIBITORS” (DOW AGROSCIENCES LLC, priority 2012, published 2014).

Tests used:
SCPMA = test: In-water applied (paddy) greenhouse weed control, SCPMA; type: in vivo
Procedure: (§1) Weed seeds or nutlets of the desired test plant species were planted in puddled soil (mud) prepared by mixing a shredded, non-sterilized mineral soil (50.5 percent silt, 25.5 percent clay, and 24 percent sand, with a pH of about 7.6 and an organic matter content of about 2.9 percent) and water at a 1:1 volumetric ratio. The prepared mud was dispensed in 365 mL aliquots into 16-ounce (oz.) non-perforated plastic pots with a surface area of 86.59 square centimeters (cm^2) leaving a headspace of 3 centimeters (cm) in each pot. Mud was allowed to dry overnight prior to planting or transplanting. Rice seeds were planted in Sun Gro MetroMix® 306 planting mixture, which typically has a pH of 6.0 to 6.8 and an organic matter content of about 30 percent, in plastic plug trays. Seedlings at the second or third leaf stage of growth were transplanted into 840 mL of mud contained in 32-oz. non-perforated plastic pots with a surface area of 86.59 cm^2 4 days prior to herbicide application. The paddy was created by filling the headspace of the pots with 2.5 to 3 cm of water. When required to ensure good germination and healthy plants, a fungicide treatment and/or other chemical or physical treatment was applied. The plants were grown for 4-22 days in a greenhouse with an approximate 14 h photoperiod which was maintained at about 29′C during the day and 26° C. during the night. Nutrients were added as Osmocote® (19:6:12, N:P:K+minor nutrients) at 2 g per 16-oz. pot and 4 g per 960-mL 32-oz. pot. Water was added on a regular basis to maintain the paddy flood, and supplemental lighting was provided with overhead metal halide 1000-Watt lamps as necessary. The plants were employed for testing when they reached the second or third true leaf stage.
(§2) Treatments consisted of the acid or esters of 4-amino-3-chloro-5-fluoro-6-(4-chloro-2-fluoro-3-methoxy-phenyl)pyridine-2-carboxylic acid (compound A) each formulated as an SC and various herbicidal components alone and in combination. Forms of compound A were applied on an acid equivalent basis.
(§3) Other herbicidal components were applied on an active ingredient basis and included auxin transport inhibiting (ATI) herbicides chlorflurenol-methyl (technical material), chlorflurenol (technical material), diflufenzopyr (technical material), dilfufenzopyr sodium (technical material), flurenol-methyl (technical material,) and naptalam (technical material).
(§4) Treatment requirements for each compound or herbicidal component were calculated based upon the rates being tested, the concentration of active ingredient or acid equivalent in the formulation, an application volume of 2 mL per component per pot, and an application area of 86.59 cm^2 per pot.
(§5) For formulated compounds, a measured amount was placed in an individual 100 or 200 mL glass vial and was dissolved in a volume of 1.25% (v/v) Agri-Dex® crop oil concentrate to obtain application solutions.
(§6) For technical grade compounds, a weighed amount was placed in an individual 100 to 200 mL glass vial and was dissolved in a volume of acetone to obtain concentrated stock solutions. […] The concentrated stock solutions obtained were diluted with an equivalent volume of an aqueous mixture containing 2.5% (v/v) crop oil concentrate so that the final application solutions contained 1.25% (v/v) crop oil concentrate.
(§7) Applications were made by injecting with a pipetter appropriate amounts of the application solutions, individually and sequentially, into the aqueous layer of the paddy. Control plants were treated in the same manner with the solvent blank. Applications were made so that all treated plant material received the same concentrations of acetone and crop oil concentrate.
(§8) The treated plants and control plants were placed in a greenhouse as described above and water was added as needed to maintain a paddy flood. […]

CYPIR = test: Postemergence foliar-applied greenhouse weed control, CYPIR; type: in vivo, Cyperus iria L.
Text: Seeds or nutlets of the desired test plant species were planted in a soil matrix prepared by mixing a loam or sandy loam soil (e.g., 28.6 percent silt, 18.8 percent clay, and 52.6 percent sand, with a pH of about 5.8 and an organic matter content of about 1.8 percent) and calcareous grit in an 80 to 20 ratio. The soil matrix was contained in plastic pots with a volume of 1 quart and a surface area of 83.6 square centimeters (cm^2). When required to ensure good germination and healthy plants, a fungicide treatment and/or other chemical or physical treatment was applied. The plants were grown for 8-22 days in a greenhouse with an approximate 14 h photoperiod which was maintained at about 29° C. during the day and 26° C. during the night. Nutrients (Peters Excel® 15-5-15 5-Ca 2-Mg and iron chelate) were applied in the irrigation solution as needed and water was added on a regular basis. Supplemental lighting was provided with overhead metal halide 1000-Watt lamps as necessary. The plants were employed for testing when they reached the first through fourth true leaf stage.
Treatments consisted of the acid or esters of 4-amino-3-chloro-5-fluoro-6-(4-chloro-2-fluoro-3-methoxy-phenyl) pyridine-2-carboxylic acid (Compound A), each formulated as an SC (suspension concentrate), and various herbicidal components alone and in combination. Forms of compound A were applied on an acid equivalent basis.
as §3, with “chlorflurenol” for “chlorflurenol-methyl”, “chlorflurenol-methyl” for “chlorflurenol”, “diflufenzopyr” for “dilfufenzopyr”, “material)” for “material,)”
Treatment requirements were calculated based upon the rates being tested, the concentration of active ingredient or acid equivalent in the formulation, and a 12 mL application volume at a rate of 187 L/ha.
For treatments comprised of formulated and technical compounds, weighed amounts of the technical materials were placed individually in 25 mL glass vials and dissolved in a volume of 97:3 v/v acetone/DMSO to obtain 12× stock solutions, and measured amounts of the formulated compounds were placed individually in 25 mL glass vials and diluted in a volume of 1.5% (v/v) crop oil concentrate or water to obtain 12× stock solutions. […] Application solutions were prepared by adding an appropriate amount of each stock solution (e.g., 1 mL) and diluted to the appropriate final concentrations with the addition of an appropriate amount of an aqueous mixture of 1.5% (v/v) crop oil concentrate so that the final spray solutions contained 1.25% (v/v) crop oil concentrate. When required, additional water and/or 97:3 v/v acetone/DMSO was added to individual application solutions so that the final acetone and DMSO concentrations of the application solutions being compared were 8.1% and 0.25%, respectively.
All stock solutions and applications solutions were visually inspected for compound compatibility prior to application. Spray solutions were applied to the plant material with an overhead Mandel track sprayer equipped with an 8002E nozzle calibrated to deliver 187 L/ha over an application area of 0.503 m^2 at a spray height of 18 to 20 inches (46 to 50 cm) above average plant canopy height. Control plants were sprayed in the same manner with the solvent blank.
The treated plants and control plants were placed in a greenhouse as described above and watered by sub-irrigation to prevent wash-off of the test compounds. After approximately 3 weeks, the condition of the test plants as compared with that of the untreated plants was determined visually and scored on a scale of 0 to 100 percent where 0 corresponds to no injury or growth inhibition and 100 corresponds to complete kill. […]

CYPRO = test: In-water applied (paddy) greenhouse weed control, CYPRO; type: in vivo, Cyperus rotundus L.; details: 19 DAA
Procedure: as §1, §2, §3, §4, §5, §6, §7, §8

Structure (SMILES)	Visual Weed Control (%) Obs (SCPMA; 20 DAA, 8.75 gae/ha) [%]	Visual Weed Control (%) Obs (SCPMA; 20 DAA, 17.5 gae/ha) [%]	Visual Weed Control (%) Obs (SCPMA; 20 DAA, 35 gae/ha) [%]	Visual Weed Control (%) Obs (SCPMA; 22 DAA, 8.75 gae/ha) [%]	Visual Weed Control (%) Obs (SCPMA; 22 DAA, 17.5 gae/ha) [%]	Visual Weed Control (%) Obs (SCPMA; 22 DAA, 35 gae/ha) [%]	Visual Weed Control (%) Obs (CYPIR; 20 DAA, 4.38 gae/ha) [%]	Visual Weed Control (%) Obs (SCPMA; 20 DAA, 4.38 gae/ha) [%]	Visual Weed Control (%) Obs (CYPIR; 22 DAA, 8 gae/ha) [%]	Visual Weed Control (%) Obs (CYPRO; 8 gae/ha) [%]	Visual Weed Control (%) Obs (CYPRO; 16 gae/ha) [%]	Visual Weed Control (%) Obs (CYPRO; 32 gae/ha) [%]
COc1c(Cl)ccc(-c2nc(C(=O)O)c(Cl)c(N)c2F)c1F [Compound A Acid, 4-amino-3-chloro-6-(4-chloro-2-fluoro-3-methoxyphenyl)-5-fluoropyridine-2-carboxylic acid]	0	0	30	0	0	0	30					
COc1c(Cl)ccc(-c2nc(C(=O)OCc3ccccc3)c(Cl)c(N)c2F)c1F [Compound A Benzyl Ester]	0	0		0	0		70	0	30	50	85	90
